Data published in US20080207673A1, “Method for Treating Cancer, Coronary, Inflammatory and Macular Disease, Combining the Modulation of Zinc-and/or Copper Dependent Proteins” (priority 2005, published 2008).

Legend:
hepatitis B (HBV) = test: NIH hepatitis B screening; format: cell-based, hepatitis B virus; details: negative because of cytotoxicity of the cell line used
Text: The HBV research is run by the University of Georgetown (Dr. Brent Korba). The results with HBV were negative at this point because of cytotoxicity of the cell line used.

Aβ (1-40) = target: T1, Aβ (1-40) (Homo sapiens, UniProt P05067); test: Thioflavin T fluorometric assay of metal-ion induced Aβ aggregation; format: biochemical; details: test compound 10 μg/ml, 24 hours
T1 construct: A 5 mg/ml stock solution of Aβ (1-40) (delivered from Bachem (CH)); purchased Bachem (CH)
T1 sequence (P05067 672-711 limits assumed): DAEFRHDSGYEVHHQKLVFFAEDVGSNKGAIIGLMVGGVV
Procedure: A 5 mg/ml stock solution of Aβ (1-40) (delivered from Bachem (CH)) was freshly prepared before each experiment by dissolving the lyophilized peptide in 0.01 M HCl, followed by subsequent dilution 1.1 with 0.01 M NaOH to yield a neutral pH. Aliquot of Aβ (1-40) were diluted in PBS (pH 7.4) to 100 [mu]M and incubated at a total volume of 30 μ/l for 24 hours at room temperature. For co-incubation experiments, the indicated concentrations of metal ions and/or aliquot of test compounds were added. The test compounds were added to a final molar concentration of 10 μg/ml.
The amyloid formation was quantified by a thioflavin T fluorometric assay. Thioflavin binds specifically to amyloid and this introduces a shift in its emission spectrum and a fluorescent signal proportional to the amount of amyloid is formed. After incubation, Aβ (1-40) peptides were added to PBS (pH 6.0) and 3 μM thioflavin T in a final volume of 1 ml. Fluorescence was monitored at excitation 454 nm and emission 482 nm using a Fluoroscan II fluorometer (Molecular devices, UK). A time scan of fluorescence was performed and three values after the decay reached a plateau (around 5 minutes) were averaged after subtracting the background fluorescence of 3 μM thioflavin T. For co-incubation experiments, fluorescence of test compound alone was determined. Samples were run in triplicate.
It was studied whether the two compounds had any effect on metal-ion catalysed Aβ aggregation, especially the aggregation caused by Zn and Cu.

MMP-2 = target: T2, MMP-2 (Homo sapiens, UniProt P08253); test: MMP enzyme assay, fluorometric; format: biochemical
T2 sequence (P08253 110-660): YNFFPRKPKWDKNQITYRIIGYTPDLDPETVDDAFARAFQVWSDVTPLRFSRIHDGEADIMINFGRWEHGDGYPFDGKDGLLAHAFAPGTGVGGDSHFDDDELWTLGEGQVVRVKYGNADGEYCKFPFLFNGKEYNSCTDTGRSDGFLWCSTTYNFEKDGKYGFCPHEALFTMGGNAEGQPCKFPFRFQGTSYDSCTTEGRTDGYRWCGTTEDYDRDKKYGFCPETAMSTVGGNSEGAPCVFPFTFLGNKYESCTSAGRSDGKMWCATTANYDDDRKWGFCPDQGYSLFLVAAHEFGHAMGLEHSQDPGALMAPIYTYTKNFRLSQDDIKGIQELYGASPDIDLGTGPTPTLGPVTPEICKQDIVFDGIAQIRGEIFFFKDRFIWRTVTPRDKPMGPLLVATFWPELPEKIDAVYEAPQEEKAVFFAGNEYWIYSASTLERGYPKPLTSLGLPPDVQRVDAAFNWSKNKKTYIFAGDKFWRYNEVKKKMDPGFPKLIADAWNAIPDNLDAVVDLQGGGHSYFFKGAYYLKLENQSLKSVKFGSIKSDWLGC
Procedure: (§1) An enzyme assay was conducted with five of the enzymes belonging to the MMP group. Specifically, the assay was conducted for MMP-1, MMP-2, MMP-3, MMP-7, and MMP-9 at various concentrations.
(§2) A test substrate of Mca-Pro-Leu-Gly-Leu-Dpa-Ala-Arg-NH2 was subsequently added to obtain a concentration of 25 μM. MMP-1 was incubated for 2 hours at 37EC, MMP-2 was incubated for 3 hours at 25EC, MMP-3 was incubated for 90 min at 37EC. MMP-7 was incubated for 90 min at 37EC, and MMP-9 was incubated for 2 hours at 25 degrees Celsius. The activity of the enzymes was measured by fluorometric quantisation of Mca-Pro-Leu-Gly-OH.

MMP-7 = target: T3, MMP-7 (Homo sapiens, UniProt P09237); test: MMP enzyme assay, fluorometric; format: biochemical
T3 sequence (P09237 95-267): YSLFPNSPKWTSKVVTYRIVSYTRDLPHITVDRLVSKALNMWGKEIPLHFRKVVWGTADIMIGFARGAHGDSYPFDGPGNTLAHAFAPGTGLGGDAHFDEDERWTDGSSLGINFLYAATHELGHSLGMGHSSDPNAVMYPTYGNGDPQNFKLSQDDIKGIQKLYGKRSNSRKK
Procedure: as §1, §2

MMP-3 = MMP-3 (Homo sapiens, UniProt P08254); test: MMP enzyme assay, fluorometric; format: biochemical
Chain of MMP-3 (P08254 100-477, species assumed): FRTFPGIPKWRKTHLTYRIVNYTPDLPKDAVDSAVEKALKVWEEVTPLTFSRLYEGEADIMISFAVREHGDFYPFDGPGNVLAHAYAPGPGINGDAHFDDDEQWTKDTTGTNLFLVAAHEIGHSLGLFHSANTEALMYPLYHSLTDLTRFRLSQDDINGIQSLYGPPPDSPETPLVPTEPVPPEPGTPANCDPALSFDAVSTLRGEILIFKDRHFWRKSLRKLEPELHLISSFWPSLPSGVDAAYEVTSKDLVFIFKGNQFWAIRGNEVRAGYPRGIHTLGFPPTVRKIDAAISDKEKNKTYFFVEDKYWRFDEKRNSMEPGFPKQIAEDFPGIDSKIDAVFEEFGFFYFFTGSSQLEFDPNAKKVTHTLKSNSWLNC
Procedure: as §1, §2

MMP-1 = target: T4, MMP-1 (Homo sapiens, UniProt P03956); test: MMP enzyme assay, fluorometric; format: biochemical
T4 sequence (P03956 100-469): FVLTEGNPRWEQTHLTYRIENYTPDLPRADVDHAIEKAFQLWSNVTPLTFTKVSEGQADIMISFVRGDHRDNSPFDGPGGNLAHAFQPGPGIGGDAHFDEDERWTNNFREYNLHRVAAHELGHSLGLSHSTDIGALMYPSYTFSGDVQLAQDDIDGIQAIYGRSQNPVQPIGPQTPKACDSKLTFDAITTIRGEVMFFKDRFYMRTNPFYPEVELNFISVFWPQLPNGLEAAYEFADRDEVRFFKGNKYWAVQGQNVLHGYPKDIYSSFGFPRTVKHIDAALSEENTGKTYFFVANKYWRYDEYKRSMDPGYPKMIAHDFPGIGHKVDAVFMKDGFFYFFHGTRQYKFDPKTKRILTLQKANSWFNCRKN
Procedure: as §1, §2

MMP-9 = MMP-9 (Homo sapiens, UniProt P14780); test: MMP enzyme assay, fluorometric; format: biochemical
Chain of MMP-9 (P14780 94-707, species assumed): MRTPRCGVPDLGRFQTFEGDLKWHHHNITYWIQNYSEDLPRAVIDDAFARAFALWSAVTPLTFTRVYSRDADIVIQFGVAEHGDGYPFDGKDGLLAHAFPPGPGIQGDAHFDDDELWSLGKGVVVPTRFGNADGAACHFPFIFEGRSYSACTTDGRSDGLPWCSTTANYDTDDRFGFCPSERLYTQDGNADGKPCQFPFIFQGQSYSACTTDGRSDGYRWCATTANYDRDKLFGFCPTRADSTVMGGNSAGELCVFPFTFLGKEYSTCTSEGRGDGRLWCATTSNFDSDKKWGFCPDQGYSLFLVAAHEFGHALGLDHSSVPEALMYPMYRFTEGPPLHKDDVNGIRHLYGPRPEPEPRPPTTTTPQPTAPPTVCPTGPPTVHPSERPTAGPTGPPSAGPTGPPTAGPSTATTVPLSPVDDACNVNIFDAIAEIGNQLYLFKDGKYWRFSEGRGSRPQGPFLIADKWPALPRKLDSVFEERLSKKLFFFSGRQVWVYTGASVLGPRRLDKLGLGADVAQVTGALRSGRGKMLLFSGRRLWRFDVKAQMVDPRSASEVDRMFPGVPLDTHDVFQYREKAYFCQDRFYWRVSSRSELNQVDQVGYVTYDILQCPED
Procedure: as §1, §2

[1] = cited from earlier work
Huh7 ET = test: Cytotoxicity in the HCV replicon cell line (actively dividing cells); format: cell-based; details: single high test concentration, 20 micromolar
Text: The cell line used was Huh7 ET.

HCV RNA Replicons = test: HCV RNA replicon antiviral activity testing (luciferase); format: cell-based, Hepatitis C virus; details: for inhibition at 20 µM: Hepatitis C virus, 20 micromolar, read-out: Antiviral Activity (luciferase, percent inhibition of virus control)
[2] = brain; cited from earlier work
[3] = cited from earlier work; remark: listed apart in the source
PC12 cells = test: MTT reduction, Aβ (25-35) induced toxicity in PC12 cells; format: cell-based, Rat; details: 10 μg phanquinone per ml
Procedure: Aβ (25-35) was delivered by Bachem (CH) or Sigma (USA) and dissolved in phosphate buffered saline (PBS) at pH 7, 4, 2 hours prior to application.
Rat PC12 pheochromocytoma cells were grown in Dulbecco's modified Eagle's medium (DMEM) containing 1% penicillin-streptomycin, 5% fetal calf serum and 10% horse serum in humidified incubator with 5% CO2.
PC12 cells were plated on 96-wells microtiter plates in 100 μl of the appropriate medium. After 24 hours the indicated concentrations of Aβ (25-35) peptide was added alone or together with phanquinone in the designated concentrations. Incubation continued for 24 hours. Following incubation, MTT reduction was measured using a commercially available assay according to the manufacturer's (Boehringer Mannheim) instructions. Assay values obtained by vehicle alone were defined as 100%.
MTT is a substrate for intracellular and plasma membrane oxidoreductases and has been widely used to measure reductions of cell redox activity.
To test the effect of phanquinone on Aβ (25-35) induced toxicity in PC12 cells, PC12 cells were exposed to Aβ (25-35) peptide concentrations ranging from 0 to 10 μM. In the absence of phanquinone (i.e. only vehicle added) Aβ (25-35) produced a dose-dependent inhibition of MTT reduction. […]

[4] = single high test concentration, Huh7 ET

## Oc1c(I)cc(Cl)c2cccnc12 [Clioquinol, 5-chloro-7-iodo-8-hydroxyquinoline]
Hepatitis B (HBV)
  results with HBV: negative
Aβ (1-40)
  reduction of Cu-induced aggregation of Aβ (1-40): approximately 30%
  reduction of Zn-induced aggregation of Aβ (1-40): more than 60%
MMP-2
  inhibition at 100 µM: 28%
  inhibition at 1000 µM: 26%
  inhibition at 10000 µM: 101%
MMP-7
  inhibition at 100 µM: 20%
MMP-3
  inhibition at 100 µM: 7%
MMP-1
  inhibition at 100 µM: 12%
MMP-9
  inhibition at 100 µM: 19%
[1]
  solubility in water: Practically insoluble in water
Huh7 ET
  Cytotoxicity (actively dividing cells, percent cell control): 73.3%
HCV RNA Replicons; [4]
  inhibition at 20 µM: 82.3%
  Comments (screening verdict): Potentially active
HCV RNA Replicons; retesting dose response
  selectivity index S150: over 4.8
  selectivity index S190: 14

## O=C1C(=O)c2ncccc2-c2cccnc21 [Phanquinone, 4,7-phenanthroline-5,6-dione]
[2]
  ability of copper chelation compared to clioquinol: three times more pronounced
Hepatitis B (HBV)
  results with HBV: negative
Aβ (1-40)
  reduction of Cu-induced aggregation of Aβ (1-40): 50-60%
  reduction of Zn-induced aggregation of Aβ (1-40): approximately 10%
[3]; in vivo
  adverse effect on the nervous system: no evidence
  deaths, fetal malformations, drug interactions or carcinogenicity related to treatment: no reports
[3]; most often 200-400 mg/day for 7 to 10 days
  tolerability: well tolerated
Huh7 ET
  Cytotoxicity (actively dividing cells, percent cell control): 10.5%
PC12 cells; Aβ 10 μM, 24 hours
  inhibition of MTT reduction by Aβ (25-35): around 10%
PC12 cells; Aβ as high as 1 μM
  effect on the toxic effect of Aβ (25-35): completely counteracted
HCV RNA Replicons; [4]
  inhibition at 20 µM: 83.2%
  Comments (screening verdict): Toxic
  Selectivity Index: <1
HCV RNA Replicons; retest with dose response curve, Huh7 ET
  activity against HCV RNA replicons: no activity
